Tested on: synaptic proteins (GluR1, Synapsin 1, PSD95)
Assay: Western blot of synaptic proteins in crude synaptosomes from rat prefrontal cortex
Assay type: in vivo
Settings: for levels of GluR1 in crude PFC synaptosomes / levels of PSD95 in crude PFC synaptosomes / levels of Synapsin 1 in crude PFC synaptosomes: Example B, 24 hr after administration
Experimental: Study Design. Forty-eight (48) male Sprague Dawley rats weighing between 175 and 200 g were randomized into 8 study groups (n=6/group), following a 5-day acclimation period. On study day 0, rats in Groups 3 and 7 received a single dose of Sal while Groups 4 and 8 received a single dose of Ket (10 mg/kg) each by i.p. injection. […] One hour after dosing, rats in Groups 1-4 were sacrificed by conscious decapitation and followed by collection of the PFC. Crude synaptosomes were prepared from the PFC and three mTORC1 substrates, pmTOR, pp70S6K and p4E-BP1, and corresponding total protein loading controls (mTOR, p70S6K, and GAPDH) were quantitated by WB. Twenty-four hours after dosing, rats in Groups 5-8 were sacrificed by conscious decapitation and collection of the PFC. Crude synaptosomes were prepared from the PFC and the synaptic proteins (GluR1 and PSD95), as well as the total protein loading control (GAPDH), were quantitated by WB.
Prefrontal Cortex Synaptosome Preparations. The brain was dissected from rats in all groups (n=6/group) and rinsed in PBS. The PFC was collected as shown in FIG. 6 and homogenized at 4° C. in homogenization buffer (0.32 M sucrose, 20 mM HEPES at pH 7.4, 1 mM EDTA, 5 mM NaF, 1 mM NaVO3 and protease inhibitor cocktail (Roche; Ser. No. 19/543,200)). The homogenate was centrifuged for 10 min at 2,800 rpm at 4° C. after which the supernatant was removed and re-centrifuged at 12,000 rpm for 10 min at 4° C. The resulting pellet containing crude synaptosomes was re-suspended in Lysis buffer (50 mM Tris-HCl (pH 7.5), 150 mM NaCl, 1% Triton X-100, 0.1% SDS, 2 mM, EDTA, 1 mM NaVO3, 5 mM NaF and protease inhibitor cocktail) and sonicated on ice for 20 s at 50% amplitude. The protein concentration was determined by Bradford assay and all samples were mixed with loading buffer (60 mM Tris-HCl pH 6.8, 20 mM DTT, 2% SDS, 10% glycerol, 5% β-mercaptoethanol and 0.01% Bromophenol blue) and stored at -20° C. until WB analysis.
Western Blot Analysis: Western blot analysis for GluR1, PSD95 and GAPDH was performed as previously described. Briefly, synaptosomes preparations (15 μg total protein) were loaded into 10-15% SDS PAGE gel for electrophoresis and transferred to a polyvinylidene difluoride (PVDF) membrane in transfer buffer (10× premixed electrophoresis buffer contains 25 mM Tris, 192 mM glycine, pH 8.3; Bio-Rad). The PVDF membranes were blocked for 1 hr at room temperature with blocking buffer (2% BSA in PBS-T (10 mM Phosphate, pH 7.4, 2.7 mM KCl, 137 mM NaCl and 0.1% Tween-20)) and subsequently incubated with primary antibodies: rabbit anti-pmTOR at 1:1000 (Cell Signaling; #5536), rabbit anti-mTOR at 1:1000 (Cell Signaling; #2972), rabbit anti-pp70S6K at 1:1000 (Cell Signaling; #9205), rabbit anti-p70S6K at 1:1000 (Cell Signaling; #2708), rabbit anti-p4E-BP1 at 1:1000 (Cell Signaling; #2855), rabbit anti-GluR1 at 1:1000 (Cell Signaling; #13185), rabbit anti-Synapsin 1 at 1:1000 (Cell Signaling; #5297), rabbit anti-PSD95 at 1:1000 (Cell Signaling; #9644) and rabbit anti-GAPDH at 1:1000 (Cell Signaling; #5174) in blocking buffer overnight at 4° C. The next day, membranes were washed 3 times in PBS-T buffer and incubated with horseradish peroxidase conjugated anti-mouse or anti-rabbit secondary antibody at 1:5000 to 1:10000 (Vector Laboratories Inc) for 1 hr. After final three washes with PBS-T buffer, bands were detected using enhanced chemiluminescence. The blots then were incubated in the stripping buffer (2% SDS, 100 mM β-mercaptoethanol, 50 mM Tris-HCl pH 6.8) for 30 min at 50-55° C. followed by three washes with PBS-T buffer. The stripped blots were kept in blocking solution for 1 hr and incubated with the primary antibody directed against total levels of the respective protein or GAPDH for loading control. Densitometric analysis of phospho- and total immunoreactivity for each protein was conducted using NIH Image J software. […]

| SMILES | levels of GluR1 in crude PFC synaptosomes (Ket 10 mg/kg i.p.) | levels of PSD95 in crude PFC synaptosomes (Ket 10 mg/kg i.p.) | levels of Synapsin 1 in crude PFC synaptosomes (Ket 10 mg/kg i.p.) | levels of GluR1 in crude PFC synaptosomes (NV-5138 160 mg/kg oral) | levels of PSD95 in crude PFC synaptosomes (NV-5138 160 mg/kg oral) | levels of Synapsin 1 in crude PFC synaptosomes (NV-5138 160 mg/kg oral) | GluR1 in crude PFC synaptosomes (Example E, CUS rats, NV-5138 160 mg/kg oral, 24 hrs after second dose (day 5), p<0.01) | PSD95 in crude PFC synaptosomes (Example E, CUS rats, NV-5138 160 mg/kg oral, 24 hrs after second dose (day 5), p<0.05) |
| --- | --- | --- | --- | --- | --- | --- | --- | --- |
| CNC1(c2ccccc2Cl)CCCCC1=O (centres unmarked) [Ket, ketamine, reference compound] | significantly increased | significantly increased | significantly increased | – | – | – | – | – |
| CC(C)(C[C@H](N)C(=O)O)C(F)F [NV-5138] | – | – | – | significantly increased | trend toward increased expression | significantly increased | normalization | normalization |

Source: patent publication US20210228523A1, “MODULATORS OF SESTRIN-GATOR2 INTERACTION AND USES THEREOF” (Navitor Pharmaceuticals, Inc., priority 2017, published 2021)
